Assay results reported in US20160223525A1, “METHOD OF SCREENING FOR COMPOUNDS USEFUL IN THE TREATMENT OF ALZHEIMER DISEASE” (INNOVATIVE CONCEPTS IN DRUG DEVELOPMENT, priority 2013, published 2016).

Key:
[1] = system: Patient-derived fibroblasts (AD patient, affected cells); test: Reversal of the AD-signature (mitochondrial behaviour variables V3, V5, V7, V11, V19) by dynamic imaging of MitoTracker green-labelled live cells; type: cell-based, human; settings: for overall rescue of the diseased (AD) phenotype, weighted by discriminant equation: 30 min incubation, healthy control=100%, AD control=0%; for overall rescue / reversal of the AD-signature, dose-response: across tested doses (0.05/0.1 to 10 μM)
Method: Fibroblasts were labelled with MitoTracker green, a cell-permeant mitochondrial dye not sensitive to mitochondrial membrane potential, for 30 minutes. Images were recorded from an epifluorescence microscope continuously for 6 minutes. Cells were kept at 37° C. for the duration of the image capture. For each experimental condition, 3 to 15 cells were recorded per well from three independent plates, i.e. up to 6000 individual mitochondria. The maximum duration for data acquisition was 30 minutes (i.e. five cells observed during 6 min). Images were captured with a Zeiss Axioplan II microscope along three dimensions in space and in time.
Patient-derived fibroblasts were cultured in DMEM containing 15% fetal calf serum and 0.5% DMSO, a concentration known to be inert on the mitochondrial behaviour.
[…] These concentrations are consistent with circulating levels of most drugable small molecules. They are within the range of doses centered on cMax when PK/PD (Pharmacokinetic/Pharmacodynamic) studies are available.
The negative control consists in affected cells treated with the vehicle only (DMSO), the positive control consists in healthy cells treated with the vehicle only (DMSO).
Reference compounds were tested on affected cells and compared to the 2 controls.
All raw data were expressed as a percent of control values (Healthy control=100%, AD control=0%).
Data analysis of the signature variables was particularly tuned to identify bifurcation in the logic of the descriptor measured. These bifurcations and the type of adaptation put in place by the mitochondrial reticular network give us significant insights on how the cell adapts to the test element. Impact of the disease on each individual variable was analyzed through a classical linear analysis with an analysis of variance (ANOVAs). Significant differences between groups are sought through a Bonferroni post-hoc analysis.

[2] = cited from earlier work
[3] = across tested doses (0.1, 1, 10 μM)
[4] = across tested doses (0.1, 1, 10 μM; imatinib also 0.05 μM)

Compound	overall rescue of the diseased (AD) phenotype, weighted by discriminant equation ([1]; 1 μM)	overall rescue of the diseased (AD) phenotype, weighted by discriminant equation ([1]; 10 μM)	V5 (average cell area or dispersion descriptor of the areas of cells), % of phenotypic rescue ([1]; 1 and 10 μM)	overall rescue / reversal of the AD-signature, dose-response [1]	V7 (total area of regions containing entwined mitochondria to the total cell area), % of phenotypic rescue [1, 3]	V19 (frequency of mitochondria displaying an area between 2.6 and 3.1 μm^2), % of phenotypic rescue [1, 3]	V3 (dispersion descriptor of the moving speeds of mitochondria), % of phenotypic rescue [1, 4]	V11 (cell area covered with mitochondria), % of phenotypic rescue [1, 4]	overall rescue of the diseased (AD) phenotype, weighted by discriminant equation ([1]; 0.1 μM)	V5 (average cell area or dispersion descriptor of the areas of cells), % of phenotypic rescue [1, 3]	bioavailability [2]	V3 (dispersion descriptor of the moving speeds of mitochondria), % of phenotypic rescue ([1]; 0.05 μM)	V5 (average cell area or dispersion descriptor of the areas of cells), % of phenotypic rescue ([1]; 0.05 μM)	V7 (total area of regions containing entwined mitochondria to the total cell area), % of phenotypic rescue ([1]; 0.05 μM)	V11 (cell area covered with mitochondria), % of phenotypic rescue ([1]; 0.05 μM)	V19 (frequency of mitochondria displaying an area between 2.6 and 3.1 μm^2), % of phenotypic rescue ([1]; 0.05 μM)	overall rescue of the diseased (AD) phenotype, weighted by discriminant equation ([1]; 0.05 μM) [%]	overall rescue of the diseased (AD) phenotype ([1]; doses lower than 0.05 μM (not shown))
CC(=O)[C@H]1CC[C@H]2[C@@H]3CC[C@H]4C[C@H](O)CC[C@]4(C)[C@H]3CC[C@]12C [Allopregnanolone]	36%	provided a dose-dependent rescue	rescue was obtained	ability to reverse the AD-signature in a dose-dependent manner	detrimental at the lowest tested dose and tended to improve with increasing concentration of the drug but not to a level where the disease phenotype was reversed	no effect	rescue was obtained at all tested doses	detrimental at the lowest tested dose and tended to improve with increasing concentration of the drug but not to a level where the disease phenotype was reversed	–	–	–	–	–	–	–	–	–	–
Oc1ccc(C=Cc2cc(O)cc(O)c2)cc1 [Resveratrol]	did not provide rescue to the AD phenotype but a detrimental effect with worsening of the diseased status	63%	–	ability to reverse the AD-signature in a dose-dependent manner	seesaw effects	greatly worsened the disease-phenotype	efficient in reversing the disease phenotype	greatly worsened the disease-phenotype	did not provide rescue to the AD phenotype but a detrimental effect with worsening of the diseased status	seesaw effects	poor bioavailability	–	–	–	–	–	–	–
Cc1ccc(NC(=O)c2ccc(CN3CCN(C)CC3)cc2)cc1Nc1nccc(-c2cccnc2)n1 [Imatinib]	–	–	–	–	–	–	tended to improve with increasing doses	worsened	–	–	–	not affected	level comparable to that of healthy subject-derived cells	level comparable to that of healthy subject-derived cells	not affected	level comparable to that of healthy subject-derived cells	54	no effect
